*1 amine or outer side, *2 acyl side, *3 side chain or, on linkers, in order; H or OH if unused. Where a SMILES comes first, the peptide text is derived from it. Bridges are numbered along the chain shown (N, C = ends). [ ]: non-standard residue; d: D form. The star is where a group is joined. X122 = CN([C@@H](Cc1cc(Cl)ccc1C1=CCN(C(=O)C(C)(C)C)CC1)C(=O)[*:2])[*:1]; X170 = CN([C@@H](Cc1cc(Cl)ccc1-c1ccc2nonc2c1)C(=O)[*:2])[*:1]; X177 = CN([C@@H](Cc1cc(F)ccc1C1=CC2CCC(C1)N2)C(=O)[*:2])[*:1]; NMehhhLys(Me) = CN([C@@H](CCCCCCCN(C)[*:3])C(=O)[*:2])[*:1]; NMe3Pal(2-OcPr,5-F) = CN[C@@H](Cc1cc(F)cnc1OC1CC1)C(=O)O; NMe(hhhLys) = CN([C@@H](CCCCCCCN[*:3])C(=O)[*:2])[*:1]; X152 = CN([C@@H](Cc1cc(Cl)ccc1OC1CC1)C(=O)[*:2])[*:1]; Cyclobutanecarbonyl(1-CF3) = O=C(C1(C(F)(F)F)CCC1)*; cBuCO(3,3-F2-1-CF3) = O=C(C1(C(F)(F)F)CC(F)(F)C1)*; Pro(trans-4-F) = O=C(O)[C@@H]1C[C@@H](F)CN1; Gly(cPr) = N[C@H](C(=O)O)C1CC1
Tests used:
[1] = test system: NCI-H1048 cells; test: MTT proliferation assay, NCI-H1048; assay type: cell-based; details: 5 days compound exposure, 1:3 serial dilution starting at 10 μM;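 also: Dose-response in 96-well plates over 8 or 10 concentration points, with exposure spanning 3-4 cell doublings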
[2] = test system: OVCAR3 cells; test: MTT proliferation assay, OVCAR3; assay type: cell-based; details: 5 days compound exposure, 1:3 serial dilution starting at 10 μM;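 also: compound given as an 8- or 10-point series, one day after plating, with exposure covering roughly 3-4 cell doublings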
[3] = target: T1, CyclinE1/CDK2 (Homo sapiens, UniProt P24864); test: Fluorescence Polarization (FP) competitive binding assay, Cyclin E1/Cdk2; details: 10 nM Cyclin E1/Cdk2, 2 nM FAM probe; average of 2-3 independent experiments; read-out: Cyclin E FP IC50;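 also: readings taken after two-hour equilibration at room temperature in HEPES buffer with NaCl, DTT, NP-40 and BSA, IC50 fitted from eight-concentration serial dilution series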
T1 construct: purchased Eurofins, discovery 14-475

[4] = target: T2, CyclinB1/CDK1 (Homo sapiens, UniProt P14635); test: Fluorescence Polarization (FP) competitive binding assay, Cyclin B1/Cdk1; details: 10 nM Cyclin B1/Cdk1, 2 nM FAM probe; average of 2-3 independent experiments; read-out: Cyclin B FP IC50;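 also: fluorescence polarization read after equilibration at room temperature, with IC50 taken from serially diluted dose-response curves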
T2 construct: purchased Eurofins, discovery 14-450

[5] = target: T3, CyclinA2/CDK2 (Homo sapiens, UniProt P20248); test: Fluorescence Polarization (FP) competitive binding assay, Cyclin A2/Cdk2; details: 8 nM Cyclin A2/Cdk2, 2 nM FAM probe; average of 2-3 independent experiments; read-out: Cyclin A FP IC50;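 also: plates equilibrated two hours at room temperature before polarization reading, IC50 fitted from eight-concentration compound titration curves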
T3 construct: purchased CRELUX Protein Services

| SMILES | GI50 [1] [nM] | GI50 [2] [nM] | IC50 [3] [nM] | IC50 [4] [nM] | IC50 [5] [nM] |
| --- | --- | --- | --- | --- | --- |
| CC(C)C[C@@H]1NC(=O)[C@@H](N(C)C(=O)[C@@H](NC(=O)[C@@H]2C[C@@H](F)CN2C(=O)C2(C(F)(F)F)CC(F)(F)C2)C2CC2)CC=CCCCCN(C)C(=O)[C@H](Cc2cc(F)ccc2-c2cnn(C3CC3)c2)N(C)C1=O [Example 86] | 20 | 20 | 250 | 20 | 60 |
| CC(C)C[C@@H]1NC(=O)[C@@H](N(C)C(=O)[C@@H](NC(=O)[C@@H]2C[C@@H](F)CN2C(=O)C2(C(F)(F)F)CC(F)(F)C2)C2CC2)CCCCCCCN(C)C(=O)[C@H](Cc2cc(Cl)ccc2OC2CC2)N(C)C1=O [Example 314] ({cBuCO(3,3-F2-1-CF3)}-[Pro(trans-4-F)][Gly(cPr)][NMehhhLys(Me)]L[X152]; lactam 3-C) | 10 | 10 | 140 | 20 | 30 |
| CC(C)C[C@@H]1NC(=O)[C@@H](N(C)C(=O)[C@@H](NC(=O)[C@@H]2C[C@@H](F)CN2C(=O)C2(C(F)(F)F)CC(F)(F)C2)C2CC2)CCCCCCCNC(=O)[C@H](Cc2cc(Cl)ccc2C2=CCN(C(=O)C(C)(C)C)CC2)N(C)C1=O [Example 99] ({cBuCO(3,3-F2-1-CF3)}-[Pro(trans-4-F)][Gly(cPr)][NMe(hhhLys)]L[X122]; lactam 3-C) | 20 | 30 | 1540 | 20 | 20 |
| CC(C)C[C@@H]1NC(=O)[C@@H](N(C)C(=O)[C@@H](NC(=O)[C@@H]2C[C@@H](F)CN2C(=O)C2(C(F)(F)F)CC(F)(F)C2)C2CC2)CC=CCCCCNC(=O)[C@H](Cc2cc(Cl)ccc2C2=CCN(S(C)(=O)=O)CC2)N(C)C1=O [Example 23] | 180 | 210 | 5470 | 20 | 120 |
| CC(C)C[C@@H]1NC(=O)[C@@H](N(C)C(=O)[C@@H](NC(=O)[C@@H]2C[C@@H](F)CN2C(=O)C2(C(F)(F)F)CCC2)C2CC2)CC=CCCCCNC(=O)[C@H](Cc2cc(Cl)ccc2Oc2ncccn2)N(C)C1=O (single isomer, unassigned) [Example 156-P1] | 480 | 530 | 830 | 20 | 890 |
| CC(C)C[C@@H]1NC(=O)[C@@H](N(C)C(=O)[C@@H](NC(=O)[C@@H]2C[C@@H](F)CN2C(=O)C2(C(F)(F)F)CCC2)C2CC2)CCCCCCCNC(=O)[C@H](Cc2cc(F)cnc2OC2CC2)N(C)C1=O [Example 134] ({Cyclobutanecarbonyl(1-CF3)}-[Pro(trans-4-F)][Gly(cPr)][NMe(hhhLys)]L[NMe3Pal(2-OcPr,5-F)]; lactam 3-C) | 30 | 40 | 120 | 20 | 100 |
| CC(C)C[C@@H]1NC(=O)[C@@H](N(C)C(=O)[C@@H](NC(=O)[C@@H]2C[C@@H](F)CN2C(=O)C2(C(F)(F)F)CC(F)(F)C2)C2CC2)CC=CCCCCNC(=O)[C@H](Cc2cc(Cl)ccc2-c2cnn(CCO)c2)N(C)C1=O [Example 28] | 80 | 170 | 740 | 20 | 40 |
| CC(C)C[C@@H]1NC(=O)[C@@H](N(C)C(=O)[C@@H](NC(=O)[C@@H]2C[C@@H](F)CN2C(=O)C2(C(F)(F)F)CC(F)(F)C2)C2CC2)CC=CCCCCN(C)C(=O)[C@H](Cc2cc(F)ccc2-c2cnn(C)c2)N(C)C1=O [Example 37] | 40 | 50 | 370 | 20 | 50 |
| CC(C)C[C@@H]1NC(=O)[C@@H](N(C)C(=O)[C@@H](NC(=O)[C@@H]2C[C@@H](F)CN2C(=O)C2(C(F)(F)F)CC(F)(F)C2)C2CC2)CCCCCCCN(C)C(=O)[C@H](Cc2cc(Cl)ccc2-c2ccc3nonc3c2)N(C)C1=O [Example 170] ({cBuCO(3,3-F2-1-CF3)}-[Pro(trans-4-F)][Gly(cPr)][NMehhhLys(Me)]L[X170]; lactam 3-C) | 130 | 200 | 2220 | 20 | 50 |
| CC(C)C[C@@H]1NC(=O)[C@@H](N(C)C(=O)[C@@H](NC(=O)[C@@H]2C[C@@H](F)CN2C(=O)C2(C(F)(F)F)CC(F)(F)C2)C2CC2)CCCCCCCN(C)C(=O)[C@H](Cc2cc(F)ccc2C2=CC3CCC(C2)N3)N(C)C1=O (stereo partly drawn) [Example 165, (2S,4R)—N-((1S)-2-(((3S,6S,9S)-3-(2-(8-azabicyclo[3.2.1]oct-2-en-3-yl)-5-fluorobenzyl)-6-isobutyl-1,4-dimethyl-2,5,8-trioxo-1,4,7-triazacyclohexadecan-9-yl)(methyl)amino)-1-cyclopropyl-2-oxoethyl)-1-(3,3-difluoro-1-(trifluoromethyl)cyclobutane-1-carbonyl)-4-fluoropyrrolidine-2-carboxamide] ({cBuCO(3,3-F2-1-CF3)}-[Pro(trans-4-F)][Gly(cPr)][NMehhhLys(Me)]L[X177]; lactam 3-C) | 340 | 1670 | 5470 | 20 | 110 |

Source: patent US20240408169A1 (priority 2023, published 2024)
